Data from ChEMBL document CHEMBL5137006, “Synthesis and Characterization of Transition-State Analogue Inhibitors against Human DNA Methyltransferase 1” (J Med Chem, 2022).
Active and inactive are the calls of the source. No cut-off for these calls is given here.

Assays:
[1] = target: T1, DNA (cytosine-5)-methyltransferase 1 (Homo sapiens, UniProt P26358); test: Inhibition of human recombinant full-length DNMT1 expressed in Sf9 cells assessed as inhibition of methylated dI-dC formation using poly dI-dC and [Me-3H]SAM as substrate incubated for 2 hrs by liquid scintillation counting analysis
[2] = target: T1, DNA (cytosine-5)-methyltransferase 1; test: (§1) Inhibition of human C-terminal domain DNMT1 catalytic domain (351 to 1600 residues) expressed in Escherichia coli BL21-CodonPlus (DE3)-RIL cells assessed as inhibition of methylated dI-dC formation using 1 ug/ml poly dI-dC and [Me-3H]SAM as substrate incubated for 2 hrs by liquid scintillation counting analysis
[3] = target: T1, DNA (cytosine-5)-methyltransferase 1; test: as §1, with “using 5” for “using 1”
[4] = target: T1, DNA (cytosine-5)-methyltransferase 1; test: as §1, with “using 25” for “using 1”
[5] = target: T1, DNA (cytosine-5)-methyltransferase 1; test: as §1, with “using” for “using 1 ug/ml”, “and 1 uM” for “and”
[6] = target: T1, DNA (cytosine-5)-methyltransferase 1; test: as §1, with “using” for “using 1 ug/ml”, “and 6 uM” for “and”
[7] = target: T1, DNA (cytosine-5)-methyltransferase 1; test: as §1, with “using” for “using 1 ug/ml”, “and 8 uM” for “and”
[8] = target: T1, DNA (cytosine-5)-methyltransferase 1; test: as §1, with “using” for “using 1 ug/ml”, “and 12 uM” for “and”
[9] = target: T1, DNA (cytosine-5)-methyltransferase 1; test: Binding affinity to human C-terminal domain DNMT1 catalytic domain ([…] residues) expressed in Escherichia coli BL21-CodonPlus (DE3)-RIL cells by ultrafiltration binding assay
[10] = target: T1, DNA (cytosine-5)-methyltransferase 1; test: Inhibition of DNMT1 in human HT-29 cells assessed as reduction of 5-methylcytosine in cellular DNA at 100 uM incubated for 96 hrs by nLC-MS analysis; assay type: cell-based

T1 sequence (P26358 whole entry, the tested form may be a part): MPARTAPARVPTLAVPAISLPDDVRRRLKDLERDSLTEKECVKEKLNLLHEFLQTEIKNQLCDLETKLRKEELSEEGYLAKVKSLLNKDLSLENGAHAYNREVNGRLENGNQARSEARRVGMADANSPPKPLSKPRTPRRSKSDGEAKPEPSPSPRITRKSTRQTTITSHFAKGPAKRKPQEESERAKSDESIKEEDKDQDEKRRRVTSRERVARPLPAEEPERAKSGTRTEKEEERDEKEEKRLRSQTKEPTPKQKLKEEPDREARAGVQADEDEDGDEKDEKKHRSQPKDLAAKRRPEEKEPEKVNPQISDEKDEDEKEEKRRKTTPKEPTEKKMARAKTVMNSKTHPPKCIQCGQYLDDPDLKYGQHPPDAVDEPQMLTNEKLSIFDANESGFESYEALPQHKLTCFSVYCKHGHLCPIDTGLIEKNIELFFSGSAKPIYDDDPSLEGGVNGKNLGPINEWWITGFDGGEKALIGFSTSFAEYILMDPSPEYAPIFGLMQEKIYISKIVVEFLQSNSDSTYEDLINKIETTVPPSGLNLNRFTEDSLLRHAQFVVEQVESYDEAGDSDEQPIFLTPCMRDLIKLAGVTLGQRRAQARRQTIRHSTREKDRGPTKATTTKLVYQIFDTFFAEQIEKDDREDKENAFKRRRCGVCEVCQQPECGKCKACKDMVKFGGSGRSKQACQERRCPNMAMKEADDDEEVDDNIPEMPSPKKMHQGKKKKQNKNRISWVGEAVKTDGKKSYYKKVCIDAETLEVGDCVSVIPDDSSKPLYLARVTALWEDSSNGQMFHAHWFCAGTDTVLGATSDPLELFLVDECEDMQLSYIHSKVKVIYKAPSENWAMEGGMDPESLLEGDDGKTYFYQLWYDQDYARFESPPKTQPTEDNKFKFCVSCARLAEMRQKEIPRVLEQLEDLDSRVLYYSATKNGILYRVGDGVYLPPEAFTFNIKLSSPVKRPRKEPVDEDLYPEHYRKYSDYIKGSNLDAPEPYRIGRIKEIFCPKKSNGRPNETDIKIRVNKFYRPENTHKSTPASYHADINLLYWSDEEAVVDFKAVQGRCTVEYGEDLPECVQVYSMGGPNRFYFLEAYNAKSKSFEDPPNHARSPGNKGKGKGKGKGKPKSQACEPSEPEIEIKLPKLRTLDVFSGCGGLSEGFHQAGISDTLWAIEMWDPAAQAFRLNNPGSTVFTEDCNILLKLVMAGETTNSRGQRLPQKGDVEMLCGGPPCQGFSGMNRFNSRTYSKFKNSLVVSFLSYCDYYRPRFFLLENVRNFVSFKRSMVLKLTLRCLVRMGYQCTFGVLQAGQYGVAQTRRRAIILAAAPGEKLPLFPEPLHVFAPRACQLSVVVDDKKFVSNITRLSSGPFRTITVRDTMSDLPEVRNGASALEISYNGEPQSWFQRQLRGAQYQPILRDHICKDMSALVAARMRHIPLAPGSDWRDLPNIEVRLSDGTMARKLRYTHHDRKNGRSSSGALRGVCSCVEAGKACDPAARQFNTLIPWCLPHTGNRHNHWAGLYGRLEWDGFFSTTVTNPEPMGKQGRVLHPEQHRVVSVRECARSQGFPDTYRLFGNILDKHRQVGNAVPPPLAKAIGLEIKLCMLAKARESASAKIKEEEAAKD

Row | IC50 [1] | Structure (SMILES) | other results
1 | 2.7 µM | Nc1nc(=O)n([C@H]2C[C@H](O)[C@@H](CO)O2)cc1CNCCCC[C@H](N)C(=O)O | –
2 | 0.9 µM | Nc1nc(=O)n([C@H]2C[C@H](O)[C@@H](CO)O2)cc1CSCCC[C@H]1O[C@@H](n2cnc3c(N)ncnc32)[C@H](O)[C@@H]1O | –
3 | 3.6 µM | Nc1nc(=O)n([C@H]2C[C@H](O)[C@@H](CO)O2)cc1SCCN(CC[C@H](N)C(=O)O)C[C@H]1O[C@@H](n2cnc3c(N)ncnc32)[C@H](O)[C@@H]1O | –
4 | 0.4 µM | Nc1nc(=O)n([C@H]2C[C@H](O)[C@@H](CO)O2)cc1CNC[C@H]1O[C@@H](n2cnc3c(N)ncnc32)[C@H](O)[C@@H]1O | –
5 | > 100 µM | Nc1nc(=O)n([C@H]2C[C@H](O)[C@@H](CO)O2)cc1CCCSC[C@H]1O[C@@H](n2cnc3c(N)ncnc32)[C@H](O)[C@@H]1O | –
6 | 1.2 µM | Nc1nc(=O)n([C@H]2C[C@H](O)[C@@H](CO)O2)cc1CNCC(CC[C@H](N)C(=O)O)C[C@H]1O[C@@H](n2cnc3c(N)ncnc32)[C@H](O)[C@@H]1O (stereo not given in full) | IC50 [2]: 4 µM; IC50 [3]: 5.1 µM; IC50 [4]: 5.4 µM; IC50 [5]: 3.5 µM; IC50 [6]: 6.1 µM; IC50 [7]: 6.7 µM; IC50 [8]: 8.7 µM; Kd [9]: 7.3 µM
7 | 7.2 µM | Nc1nc(=O)n([C@H]2C[C@H](O)[C@@H](CO)O2)cc1CSCC[C@H](N)C(=O)O | –
8 | 1.1 µM | Nc1nc(=O)n([C@H]2C[C@H](O)[C@@H](CO)O2)cc1CSCCCC[C@H](N)C(=O)O | –
9 | – | Nc1ncn(C2C[C@H](O)[C@@H](CO)O2)c(=O)n1 (stereo not given in full) | inhibition [10]: Active
10 | 10.3 µM | Nc1nc(=O)n([C@H]2C[C@H](O)[C@@H](CO)O2)cc1CCN(CC[C@H](N)C(=O)O)C[C@H]1O[C@@H](n2cnc3c(N)ncnc32)[C@H](O)[C@@H]1O | –
11 | 8.5 µM | Nc1nc(=O)n([C@H]2C[C@H](O)[C@@H](CO)O2)cc1CN(CC[C@H](N)C(=O)O)C[C@H]1O[C@@H](n2cnc3c(N)ncnc32)[C@H](O)[C@@H]1O | –
12 | 19.6 µM | NC1=NC(=O)N([C@H]2C[C@H](O)[C@@H](CO)O2)CN1CCCCCN(CC[C@H](N)C(=O)O)C[C@H]1O[C@@H](n2cnc3c(N)ncnc32)[C@H](O)[C@@H]1O | –
13 | 2.9 µM | Nc1nc(=O)n([C@H]2C[C@H](O)[C@@H](CO)O2)cc1CCCN(CC[C@H](N)C(=O)O)C[C@H]1O[C@@H](n2cnc3c(N)ncnc32)[C@H](O)[C@@H]1O | –
14 | > 100 µM | Nc1nc(=O)n([C@H]2C[C@H](O)[C@@H](CO)O2)cc1CSC[C@H]1O[C@@H](n2cnc3c(N)ncnc32)[C@H](O)[C@@H]1O | –
15 | 10.3 µM | Nc1nc(=O)n([C@H]2C[C@H](O)[C@@H](CO)O2)cc1CCCNC[C@H]1O[C@@H](n2cnc3c(N)ncnc32)[C@H](O)[C@@H]1O | –
16 | > 100 µM | Nc1nc(=O)n([C@H]2C[C@H](O)[C@@H](CO)O2)cc1CCSC[C@H]1O[C@@H](n2cnc3c(N)ncnc32)[C@H](O)[C@@H]1O | –
17 | 17.2 µM | Nc1nc(=O)n([C@H]2C[C@H](O)[C@@H](CO)O2)cc1CNCC[C@H](N)C(=O)O | –
